Bridge positions count the residues as written; N and C are the ends. Square brackets hold non-standard residues; d marks the D form. Ends that are not written are not given here. Abu = CC[C@H](N)C(=O)O; Dhb = C/C=C(\N)C(=O)O; Dha = C=C(N)C(=O)O
Columns and labels:
CaoSC = experiment: In vitro methylation by His6-CaoSC with SAM (MALDI-TOF MS); format: biochemical, Streptomyces cacaoi CA-170360; details: 50 μM peptide, 5 μM His6-CaoSC, 1 mM SAM, 20 mM HEPES pH 7.5, overnight, 37 °C
Method: For methylation, the 50 μL assay contained 50 μM peptide, 5 μM His6–CaoSC, and 1 mM SAM in 20 mM HEPES buffer (pH 7.5). After overnight reaction at 37 °C, the proteins were denatured by adding 5 μL of 2% TFA and centrifuged for 10 min at 4500 rpm in a microcentrifuge at room temperature. The supernatant was desalted using an EMD Millipore C18 ziptip, and the peptide was eluted and analyzed by MALDI-TOF MS as described above.

[1] = molecular target: His6-CaoSC (methyltransferase of the cacaoidin biosynthetic gene cluster) (Streptomyces cacaoi CA-170360); experiment: SEC; analytical SEC of purified His6-tagged CaoSC

Substance	methylation by CaoSC (number of methyl groups installed at N-terminus) (CaoSC)	stoichiometry N [1]
A[Dha]APATIK [synthetic 8-residue peptide with a dehydroamino acid at position 2]	not accepted	–
His6-CaoSC (methyltransferase of the cacaoidin biosynthetic gene cluster) (enzyme)	–	2
nisin (I[Dhb]AI[Dha]LC[Abu]PGCK[Abu]GALMGCNMK[Abu]A[Abu]CHCSIHV[Dha]K; thioether 8-11, 13-19, 23-26, 25-28, 3-7; not fully specified (residues 7, 11, 19, 26, 28); UniProt P13068 24-57, looked up) [class I lanthipeptide, 34 residues, three dehydroamino acids, five Lan/MeLan rings; purchased from Sigma-Aldrich]	monomethylated	–
